Laboratory results published in US20170354639A1, “DITERPENOID DERIVATIVES AND METHODS OF USE THEREOF” (Biogen MA Inc., priority 2014, published 2017).

Molecular target: Nrf2-Keap1 (Homo sapiens, UniProt Q14145)
Test: DiscoveRx PathHunter Nrf2-Keap1 nuclear translocation functional assay (agonist format)
Format: cell-based
Settings: in duplicate, agonist mode; for EC50: 10 concentrations, 3-fold serial dilutions, 30 μM top concentration, normalized to CDDO methyl ester and vehicle
Method: DiscoveRx PathHunter® Nrf2-Keap1 Functional Assay
DiscoveRx's Nrf2-Keapl translocation assay was used to profile compounds. Primary Screening was performed in duplicate at a single concentration of 10 μM and EC50 determinations were performed in duplicate at 10 concentrations with 3-fold serial dilutions at a 30 μM top concentration or an otherwise specified top concentration.
The PathHunter® Nuclear Translocation assay detects translocation of a target protein to, or from, the nucleus. In this system, Prolink™ (PK), a small enzyme fragment, is fused to the protein of interest and Enzyme Acceptor (EA) is localized in the nucleus. Activation of the signaling pathway induces the target protein to either transit into the nucleus, thus forcing complementation of the PK and EA fragments, or out of the nucleus, hindering complementation of the fragments.
Cell handling: PathHunter Pathway cell lines were expanded from freezer stocks according to standard procedures. 5000 cells were seeded in Cell Plating Reagent 0 (containing 1% FBS) to a total volume of 20 μL into white walled, 384-well microplates and incubated for the overnight prior to testing.
Agonist format: For Agonist determination, cells were incubated with sample to induce response. Dilution of sample stocks was performed to generate 100× sample in DMSO. Intermediate dilution of sample stocks was performed to generate 5× sample in assay buffer (Cell Plating Reagent 0 containing 1% FBS). 5 μL of 5× sample was added to cells and incubated at room temperature for 6 hours. Vehicle concentration was 1%.
Signal detection: Assay signal was generated through a single addition of 25 μL (100% v/v) of PathHunter Flash Detection reagent, followed by a one hour incubation at room temperature. Microplates were read following signal generation with a PerkinElmer Envision™ instrument for chemiluminescent signal detection.
Data analysis: Compound activity was analyzed using CBIS data analysis suite (ChemInnovation, CA). For agonist mode assays, percentage activity was calculated using the following formula: % Activity=100%×(mean RLU of test sample−mean RLU of vehicle control)/(mean MAX RLU control ligand−mean RLU of vehicle control). For EC50 determination, a control agonist dose response curve was generated in the Keap 1-Nrf2 biosensor assay, data was normalized to the maximal and minimal response observed in the presence of the control ligand and vehicle respectively. CDDO methyl ester was used as a control compound. Compounds were tested in the agonist mode of the assay and data was normalized to the maximal and minimal response observed in the presence of control ligand and vehicle.

[1] = single concentration of 10 μM, 6 hours, normalized to control ligand (CDDO methyl ester) and vehicle
[2] = 6 h, single concentration of 10 μM, normalized to control ligand (CDDO methyl ester) and vehicle

Chain of Nrf2-Keap1 (Q14145 whole entry): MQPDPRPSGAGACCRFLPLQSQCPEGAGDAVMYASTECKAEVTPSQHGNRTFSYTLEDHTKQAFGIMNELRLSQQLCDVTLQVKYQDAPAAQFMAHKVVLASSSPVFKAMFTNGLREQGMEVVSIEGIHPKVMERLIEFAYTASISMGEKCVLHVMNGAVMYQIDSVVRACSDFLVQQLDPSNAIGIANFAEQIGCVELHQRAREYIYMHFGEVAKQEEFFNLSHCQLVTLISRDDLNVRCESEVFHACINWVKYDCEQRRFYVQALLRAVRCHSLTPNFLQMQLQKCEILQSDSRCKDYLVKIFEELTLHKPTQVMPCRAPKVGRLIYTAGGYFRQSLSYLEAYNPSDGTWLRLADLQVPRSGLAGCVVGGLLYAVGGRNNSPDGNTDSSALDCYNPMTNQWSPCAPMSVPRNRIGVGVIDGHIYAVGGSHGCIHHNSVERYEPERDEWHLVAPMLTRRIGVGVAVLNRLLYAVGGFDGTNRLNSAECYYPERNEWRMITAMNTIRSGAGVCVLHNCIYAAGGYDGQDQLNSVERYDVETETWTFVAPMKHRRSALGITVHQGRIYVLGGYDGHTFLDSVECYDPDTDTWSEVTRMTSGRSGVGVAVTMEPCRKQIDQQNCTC

| SMILES | EC50 [µM] | % Activation @ 10 μM [1] | activation at 10 µM [2] [%] | activation at 10 µM [1] [%] |
| --- | --- | --- | --- | --- |
| C=C1CC[C@@H]2[C@]3(C)C=NO[C@@H]3CC[C@@]2(C)[C@@H]1C/C=C1/C(=O)OC[C@H]1O [Example 12, (S,E)-3-(2-((3aR,5aS,6R,9aS,9bR)-5a,9b-dimethyl-7-methylene-3a,4,5,5a,6,7,8,9,9a,9b-decahydronaphtho[1,2-d]isoxazol-6-yl)ethylidene)-4-hydroxydihydrofuran-2(3H)-one] | 0.5 to 2 | – | – | 51 to 100 |
| C=C1CC[C@H]2[C@@](C)(CC[C@@]3(C)OS(=O)OC[C@@]23C)[C@@H]1C/C=C1/C(=O)OCC1NC=O (stereo partly drawn) [Example 22, N-((E)-5-oxo-4-(2-((4aR,6aS,7R,10aS,10bR)-4a,6a,10b-trimethyl-8-methylene-3-oxidodecahydro-1H-naphtho[2,1-d][1,3,2]dioxathiin-7-yl)ethylidene)tetrahydrofuran-3-yl)formamide] | 0.5 to 2 | – | 51 to 100 | – |
| C=C1CC[C@@H]2[C@]3(C)CO[S@](=O)O[C@@H]3CC[C@@]2(C)[C@@H]1C/C=C1/C(=O)OC[C@@H]1O [Example 10, (R,E)-3-(2-((3S,4aR,6aS,7 R,10aS,10bR)-6a,10b-dimethyl-8-methylene-3-oxidodecahydro-1H-naphtho[2,1-d][1,3,2]dioxathiin-7-yl)ethylidene)-4-hydroxydihydrofuran-2(3H)-one] | – | – | 51 to 100 | – |
| CC1(C)CCC[C@@]2(C)[C@H]1CCC1(CC1)[C@@H]2C/C=C1\C(=O)OC[C@H]1NC=O [Example 25, N—((S,Z)-5-oxo-4-(2-((1′S,4a′S,8a′S)-5′,5′,8a′-trimethyloctahydro-1′H-spiro[cyclopropane-1,2′-naphthalen]-1′-yl)ethylidene)tetrahydrofuran-3-yl)formamide] | – | – | 51 to 100 | – |
| C=C1CC[C@@H]2[C@@H](C)[C@@](C)(O)CC[C@@]2(C)[C@@H]1C/C=C1/C(=O)OC[C@H]1O [Example 5, (S,E)-4-hydroxy-3-(2-((1R,4aR,5R,6S,8aR)-6-hydroxy-5,6,8a-trimethyl-2-methylenedecahydronaphthalen-1-yl)ethylidene)dihydrofuran-2(3H)-one] | < 0.5 | – | > 100 | – |
| CC1=CC[C@@H]2[C@@H](C)[C@H](O)CC[C@@]2(C)[C@@H]1C/C=C1/C(=O)OC[C@H]1O [Example 3, (S,E)-4-hydroxy-3-(2-((1R,4aR,5R,6R,8aR)-6-hydroxy-2,5,8a-trimethyl-1,4,4a,5,6,7,8,8a-octahydronaphthalen-1-yl)ethylidene)dihydrofuran-2(3H)-one] | < 0.5 | – | > 100 | – |

Further lines, with some results ahead:

| EC50 [µM] | % Activation @ 10 μM [1] | activation at 10 µM [2] [%] | SMILES | activation at 10 µM [1] [%] |
| --- | --- | --- | --- | --- |
| 0.5 to 2 | A (A: >100%) | – | C=C1CC[C@@H]2[C@]3(C)COCO[C@@H]3CC[C@@]2(C)[C@@H]1C/C=C1/C(=O)OCC1NC=O (single isomer, unassigned) [Example 39A] | – |
| – | – | 51 to 100 | C=C1CC[C@@H]2[C@]3(C)COS(=O)O[C@@H]3CC[C@@]2(C)[C@@H]1C/C=C1\C(=O)OC[C@@H]1NC=O (stereo partly drawn) [Example 29, N-((3R,Z)-4-(2-((4aR,6aS,7R,10aS,10bR)-6a,10b-dimethyl-8-methylene-3-oxidodecahydro-1H-naphtho [2,1-d][1,3,2]dioxathiin-7-yl)ethylidene)-5-oxotetrahydrofuran-3-yl)formamide] | – |
| > 2 | – | – | CC1=CC[C@@H]2[C@@H](C)[C@](O)(C(F)(F)F)CC[C@@]2(C)[C@@H]1C/C=C1/C(=O)OC[C@H]1O [Example 47, (S,E)-4-hydroxy-3-(2-((1R,4aR,5R,6S,8aR)-6-hydroxy-2,5,8a-trimethyl-6-(trifluoromethyl)-1,4,4a,5,6,7,8,8a-octahydronaphthalen-1-yl)ethylidene)dihydrofuran-2(3H)-one] | – |
| > 2 | – | – | C=C1CC[C@@H]2[C@]3(C)COCO[C@@H]3CC[C@@]2(C)[C@@H]1C/C=C1/C(=O)OCC1NC(C)=O (single isomer, unassigned) [Example 45A] | – |
| – | – | 30 to 50 | CC1(C)CCC[C@@]2(C)[C@H]1CCC1(CC1)[C@@H]2CC/C=C1/C(=O)OCC1O (stereo partly drawn) [Example 32, (E)-4-hydroxy-3-(3-((1′S,4a′S,8a′S)-5′,5′,8a′-trimethyloctahydro-1′H-spiro[cyclopropane-1,2′-naphthalen]-1′-yl)propylidene)dihydrofuran-2(3H)-one] | – |
